Data set [1] relates to female rats Wistar HsdBrlHan. The experiment in a line: Functional Observation Battery (FOB) in rats after oral treatment. It counts as in vivo, rat. The settings on record: for aggression (summary) / audible vocalization (summary) / body temperature (summary) / escapes after finger approach (summary) / interest for an object, curiosity (summary) / irritability (summary) / mictions (summary) / number of squares crossed (summary) / pain response (summary) / spontaneous activity (summary) / startle response (summary) / time before the rat falls (summary) / toe pinch reflex (summary) / wire manoeuvre (summary): FOB 1, 2 or 3 hours later, in comparison with the control; for capacity to tolerate stress: rats submitted to several stressful conditions, compared to vehicle-treated animals. The procedure:
1, 2 or 3 hours later, a Functional Observation Battery (FOB) was carried out.
Eighteen female rats Wistar HsdBrlHan EOPS (Ganat, France) with an average weight of 175-200 g are used. The 18 rats are weighed, marked and shared in 3 groups of 6 (n=6):
“control” group=oral treatment with maize oil;
“Perillic alcohol 10” group=oral treatment with perillic alcohol at 10 mg/kg;
The observations are carried out 60 minutes before treatment and 60, 120 and 180 minutes after the administration orally of the assayed products and comprise three observation phases:
a first direct observation phase during which the animal is not disturbed;
an active observation phase during which the animal is manipulated;
a phase dedicated to the evaluation of the responses of the animals towards the reactivity assays.
The studied variables are the following:
behavioural effects: spontaneous locomotive activity, locomotive behaviour troubles, anxiety, touch response, irritability, aggression and freezing caused behaviours, somnolence, number of defecations, number of mictions, sensor-motor responses (toe pinch response and sound response);
neurological effects: pupillary reflex, palpebral closure, pelvic elevation, tail position, limb and abdominal tones, reversal test, grip test, tremors and piloerection;
physiological effects: salivation, lacrimation, diarrhea, body temperature, respiratory rhythm.
Considering the Gaussian distribution or not of the data, parametric (P) or non-parametric (NP) tests are used: ANOVA (P) or Kruskal-Wallis test (NP) followed possibly by the Dunnett test (P) or the Mann-Whitney test (NP) to compare the treated groups with the control group. Statistics are carried out with the Statview 5 software (SAS, Institute Inc., USA).

In a further data set the target is isoprenylation enzymes. The settings on record: cited from earlier work.
The conditions of data set [2]: 100 mg/kg limonene ingested in a custard, 4 h after ingestion, GC/MS; cited from earlier work.
For data set [3] the following is noted: cancer patients, doses which may have clinical activity; cited from earlier work.
Where [4] appears, read: 10 mg/kg orally, T+60 min, Mann-Whitney test.
[5] abbreviates: 10 mg/kg orally, T+120 min, Mann-Whitney test.
The mark [6] stands for this setting: 10 mg/kg orally, T+120 min, Mann-Whitney test vs. Control, n = 6.
The mark [7] stands for this setting: 10 mg/kg orally, T+180 min, Mann-Whitney test.
Setting [8] is: 10 mg/kg orally, T+180 min, Mann-Whitney test vs. Control, n = 6.

Consider `C=C(C)[C@@H]1CC=C(CO)CC1` [Perillic alcohol, (S)-4-Isopropenyl-1-cyclohexenylmethanol], for which, in data set [1] (10 mg/kg orally), the “duration of the effect” value is listed as “already decreased after 2 hours”; the “overall effect indicated by the FOB results” value is “an appeasing, relaxing effect, an anti-pain effect and an effect on temper giving a cheerful character”; the “time to response (onset)” value was “less than one hour”; the “aggression (summary)” value is given as “no aggression”. In data set [1] (10 mg/kg orally), the “audible vocalization (summary)” value is listed as “very poor”; the “body temperature (summary)” value is recorded as “a decrease”; the “escapes after finger approach (summary)” value is on record as “less quickly escapes”; the “interest for an object, curiosity (summary)” value is “an increase”. Further, in data set [1] (10 mg/kg orally), the “irritability (summary)” value is “no irritability”, the “mictions (summary)” value is given as “an increase”, the “number of squares crossed (summary)” value is “an increase” and the “pain response (summary)” value is “a high decrease”. Besides, in data set [1] (10 mg/kg orally), the “spontaneous activity (summary)” value is “an increase”, the “startle response (summary)” value was “an important decrease”, the “time before the rat falls (summary)” value is listed as “an increase” and the “toe pinch reflex (summary)” value is “a decrease”. The “wire manoeuvre (summary)” value in data set [1] (10 mg/kg orally) is given as “an increase”. For the same compound, in data set [1] (setting [4]), the “Audible vocalization vs control group” value was “tendancy to emit less vocalization”, the “Interest for an object vs control group” value is given as “tendency to have a more important interest”, the “Irritability vs control group” value is given as “significantly less irritable” and the “Toe pinch reflex vs control group” value is “significantly less reactive”. For the same compound, the “Finger approach, escapes vs control group” value in data set [1] (setting [5]) is recorded as “significantly less escapes”. In addition, in data set [1] (setting [6]), the Audible vocalization result is on record as “N.S”, the “Interest for an object” value was “N.S”, the Irritability entry was “N.S” and the Startles result is on record as “N.S”. Moreover, the “Audible vocalization vs control group” value in data set [1] (setting [7]) was “tendency to emit less vocalization”. In addition, in data set [1] (setting [8]), the Body temperature result was “N.S”, the “Interest for an object” value is listed as “N.S”, the “Number of squares crossed” value is recorded as “N.S” and the Startles entry is listed as “N.S”. For the same compound, in data set [1] (setting [8]), the Wire manoeuver result is “N.S”. Moreover, the “capacity to tolerate stress” value in data set [1] is recorded as “an important effect leading to the capacity to tolerate stress”. For the same compound, on isoprenylation enzymes, the “IC50 on isoprenylation enzymes” value is recorded as “low mM range” and the “inhibition of the isoprenylation enzymes” value is on record as “more potent inhibitors”.
Turning to `C=C(C)[C@@H]1CC=C(C(=O)O)CC1` [perillic acid], on isoprenylation enzymes, the “IC50 on isoprenylation enzymes” value is given as “low mM range” and the “inhibition of the isoprenylation enzymes” value is reported as “more potent inhibitors”.
In the case of S-limonene, in the data set on isoprenylation enzymes, the “inhibition of the isoprenylation enzymes” value is given as “only weak inhibitors”.
Consider `C=C(C)[C@H]1CC=C(C)CC1` [Limonene, (4R)-1-methyl-4-isopropenylcyclohex-1-ene], for which, in data set [1] (10 mg/kg orally), the “duration of the effect” value is given as “at least 3 hours”; the “overall effect indicated by the FOB results” value is “an appeasing, relaxing effect, an anti-pain effect and an effect on temper giving a cheerful character”; the “time to response (onset)” value is “less than one hour”; the “aggression (summary)” value is “no aggression”. Further, in data set [1] (10 mg/kg orally), the “audible vocalization (summary)” value is recorded as “very poor”; the “body temperature (summary)” value is listed as “a decrease”; the “escapes after finger approach (summary)” value was “less quickly escapes”; the “interest for an object, curiosity (summary)” value was “an increase”. Further, in data set [1] (10 mg/kg orally), the “irritability (summary)” value is recorded as “no irritability”, the “mictions (summary)” value was “an increase”, the “number of squares crossed (summary)” value is reported as “an increase” and the “pain response (summary)” value is recorded as “a high decrease”. In data set [1] (10 mg/kg orally), the “spontaneous activity (summary)” value is reported as “an increase”, the “startle response (summary)” value is recorded as “an important decrease”, the “time before the rat falls (summary)” value is “an increase” and the “toe pinch reflex (summary)” value is “a decrease”. Further, the “wire manoeuvre (summary)” value in data set [1] (10 mg/kg orally) is reported as “an increase”. Also, in data set [1] (setting [4]), the “Audible vocalization vs control group” value was “significantly less vocalization”, the “Interest for an object vs control group” value is recorded as “significantly more important”, the “Irritability vs control group” value is on record as “significantly less irritable” and the “Toe pinch reflex vs control group” value is recorded as “significantly less reactive”. Also, in data set [1] (setting [5]), the “Audible vocalization vs control group” value is given as “significantly less vocalization”; the “Finger approach, escapes vs control group” value is reported as “significantly less escapes”; the “Interest for an object vs control group” value is listed as “significantly more important”; the “Irritability vs control group” value is “significantly less irritable”. Further, the “Startles vs control group” value in data set [1] (setting [5]) is “significantly less startles”. Besides, in data set [1] (setting [7]), the “Audible vocalization vs control group” value is given as “significantly less vocalization”, the “Body temperature vs control group” value is “significantly lower”, the “Interest for an object vs control group” value is “significantly higher” and the “Number of squares crossed vs control group” value is given as “significantly more squares”. Also, in data set [1] (setting [7]), the “Startles vs control group” value is “significantly less startles” and the “Wire manoeuvre vs control group” value was “significantly more often”. In addition, the “capacity to tolerate stress” value in data set [1] is on record as “an important effect leading to the capacity to tolerate stress”. Besides, the “inhibition of the isoprenylation enzymes” value in the data set on isoprenylation enzymes is “only weak inhibitors”. In data set [2], the “compounds (plasma metabolites) present in blood” value is reported as “at least five compounds”; the “identity of the two major plasma metabolite peaks” value was “dihydroperillic acid and perillic acid”. Moreover, the tolerability entry in data set [3] is “well tolerated”.

(Values after patent US20110028549A1, “USE OF A MONOTERPENE TO TREAT OR PREVENT STRESS” (AISA THERAPEUTICS, priority 2007, published 2011).)
